Values joined by “and” are separate entries in the source; they are usually repeats but may differ in a detail not shown here. Identical values can stand only once. “Also recorded” adds a separate entry of the source. Counter-ions that a name gives are not always drawn. Like-named read-outs stand apart in the source and are kept apart here.
Key:
lens homogenate = assay: heat-induced denaturation of lens homogenate (60° C., 20 min, nephelometric); format: biochemical, rat; conditions: for % inhibition of heat-induced denaturation of lens homogenate: 60° C., 20 min, pH 7.5
Method: (§1) Experiments in vitro: A study was performed on both lens homogenates and intact lens. The opacification of this material was obtained by heating. For this purpose the same method as that already employed to study blood proteins was used (Silvestrini et al., 1968; Silvestrini et al., 1970) with some minor modifications which are reported below.
(§2) For the study of the homogenate, fresh rat lens were used which has been removed from the capsule, immersed in phosphate buffer (pH 7.5; 0.1M) in the volumetric ratio of 15:85 and then homogenated. The homogenate was then centrifuged (10 minutes at 4000 r.p.m.), the supernatant was collected and further diluted 1:1 with the above phosphate buffer, alone or containing bendazac at different concentrations. The solution thus obtained was heated at 60° C. for 20 minutes and the denaturation was assessed nephelometrically. As reference a comparison is made with the values obtained with bovine serum albumin (BSA) denaturation.
(§3) The experiment was repeated using different salts of bendazac including lithium, sodium, potassium, ammonium, organic bases (such as ethylenediamine, piperazine and diisopropylamine) and lysine. […] This experiment proves that the active ingredient is bendazac. The intact lens was studied by using fresh bovine lens which were kept for 2 hours in the phosphate buffer described above, either alone or containing bendazac at different concentrations. The lenses were then heated at 50° C. for 120 minutes; this procedure produced a clear-cut opacification in the subcapsular region. The degree of opacification was assessed blindly (the experimentor was unaware of the treatment), using a score from 0 to 4.

cataract [1] = conditions: literature, cited from earlier work
[2] = oral absorption in man, serum concentration after single oral administration; format: in vivo, human; conditions: for concentration at 2 h: human, serum
Excerpt: These blood levels appeared too low to obtain therapeutic activity.

[3] = cited from earlier work
isolated bovine lenses = assay: heat-induced opacification of isolated intact bovine lenses (50° C., 120 min, blind score); conditions: same molar concentrations for salts
Method: as §1, §3
The test was repeated using the various salts of bendazac mentioned above and in this case also with the same molar concentrations the results obtained were identical to those observed with bendazac alone.

blood proteins = conditions: literature; cited from earlier work
[4] = molecular target: bovine serum albumin (BSA) (Bos taurus, UniProt P02769); assay: heat-induced denaturation of bovine serum albumin (BSA); format: biochemical
bovine serum albumin (BSA), sequence (P02769 25-607): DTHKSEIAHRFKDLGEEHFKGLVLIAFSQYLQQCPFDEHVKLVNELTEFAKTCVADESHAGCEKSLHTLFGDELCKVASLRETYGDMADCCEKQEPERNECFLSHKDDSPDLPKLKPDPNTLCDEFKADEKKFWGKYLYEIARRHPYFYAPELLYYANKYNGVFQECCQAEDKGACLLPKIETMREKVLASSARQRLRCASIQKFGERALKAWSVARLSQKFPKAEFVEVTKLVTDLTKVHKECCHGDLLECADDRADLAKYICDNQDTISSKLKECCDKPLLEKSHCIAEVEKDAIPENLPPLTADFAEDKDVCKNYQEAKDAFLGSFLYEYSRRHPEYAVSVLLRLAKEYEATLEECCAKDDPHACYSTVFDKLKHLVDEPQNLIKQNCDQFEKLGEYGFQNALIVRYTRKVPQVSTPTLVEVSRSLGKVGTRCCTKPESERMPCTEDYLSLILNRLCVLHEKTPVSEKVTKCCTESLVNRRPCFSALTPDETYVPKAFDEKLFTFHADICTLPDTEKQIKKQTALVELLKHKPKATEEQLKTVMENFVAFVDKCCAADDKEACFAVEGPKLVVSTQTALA
Method: as §2, with “Experiments in vitro: A study was performed on both lens homogenates and intact lens. The opacification of this material was obtained by heating. For this purpose the same method as that already employed to study blood proteins was used (Silvestrini et al., 1968; Silvestrini et al., 1970) with some minor modifications which are reported below. For” for “For”

cataract [5] = assay: eye drops instilled in 4 patients with cataract; format: in vivo, human; conditions: topical, eye drops 3 times daily for one month
Method: Finally, bendazac was administered in 4 patients in the form of eye drops containing 0.25% of the lysine salt of bendazac. Eye drops were instilled 3 times daily for one month.

cataract [6] = assay: first experiment: anti-cataract activity in 24 patients, oral; format: in vivo, human; parameters: key to Vision / Refraction / Slit-lamp and/or transillumin. / Overall Judgement: +: improvement; 0: no change; -: worsening
Method: (§4) A first experiment was conducted on 24 patients with different types of cataract (cortical; corticonuclear, posterior subcapsular). […] The experiment included an examination of vision, refraction and slit-lamp test; the investigator was asked to express an overall judgement. These evaluations were performed before the beginning of treatment, after 4 weeks and again at the end of treatment when prolonged. The lysine salt of bendazac was administered at the dose of 1500 mg (corresponding to […] of bendazac) divided into three daily administrations during meals. The average duration of treatment was 50.4 days with time limits from 28 to 86 days. The study group consisted of 11 females and 13 males with an average age of 59.5 (47-74). The effects of treatment are summarized in Table 3; the values obtained in each patient are illustrated instead in Table 4. For practical purposes the results are expressed as: improvement (+), no change (0), worsening (-).

cataract [7] = assay: second experiment: double blind placebo-controlled anti-cataract study in patients, oral; format: in vivo, human; parameters: key to Vision / Refraction / Overall Judgement / Slit-lamp / Transillumination: +: improvement; 0: no change; -: worsening
Method: as §4
As a result of these encouraging results we decided to repeat the experiment under double blind conditions comparing the lysine salt of bendazac with placebo. A total of 35 patients were used; 19 were treated with placebo and 16 with the lysine salt of bendazac. The experimental methods used were identical to those described in the first experiment except for the duration of treatment which was always 4 weeks.

[8] = drug molar concentration 5 × 10^-4
[9] = 24 patients, 1500 mg daily oral, Table 3 summary
[10] = individual patient, one per line of Table 4, 1500 mg daily oral, 28-86 days, (dihydrate)
[11] = 16 patients, 4 weeks, double blind, placebo (19) 1
[12] = 16 patients, 4 weeks, double blind, placebo (19) 2
[13] = 16 patients, 4 weeks, double blind, placebo (19) --
[14] = individual patient, one per line of Table 6, 4 weeks, oral, listed as bendazac L, (dihydrate)

In the case of O=C(O)COc1nn(Cc2ccccc2)c2ccccc12, the “anti-denaturant effect on the lens homogenate compared with bendazac alone” value (lens homogenate; at the same molar concentrations) was “the same anti-denaturant effect on the lens homogenate as that of bendazac alone”.
In the case of O=C(O)c1cc(O)c2c3nc4ccccc4oc-3cc(=O)c2n1 [Catalin, 1-hydroxy-5-oxo-5H-pyrido[3,2-a]phenoxazino-3-carboxylic acid], the “effect on cataract development (words)” value (cataract [1]) is listed as “possible slowdown in cataract development”.
For CC(=O)Oc1ccccc1C(=O)O [aspirin, acetylsalicylic acid], the “effect on cataract development (words)” value (cataract [1]) is given as “possible slowdown in cataract development” and the “effect on cataract development (words)” value (cataract [1]; listed as acetylsalicylic acid) is given as “delays the development of cataract but does not determine its regression”.
In the case of O=C(O)COc1nn(Cc2ccccc2)c2ccccc12 [bendazac, [(1-benzyl-1H-indazol-3-yl)oxy]acetic acid], the “protective effect on heat-induced denaturation of lens homogenate” value (lens homogenate; compared with BSA) was “prevents heat-induced denaturation of lens homogenate and that this protective effect is similar to that observed with BSA”, the “% inhibition of heat-induced denaturation of lens homogenate” value (“% inhibition” below) (lens homogenate; [8]) was 32% and the “% inhibition” value (lens homogenate; drug molar concentration 10^-3) was 68%. The “% inhibition” value (lens homogenate; drug molar concentration 10^-4) was 18%, the concentration at 2 h ([2]; 300 mg of bendazac alone, oral, under the same conditions, read-out: serum levels) was 8000 ng/mL and the “oral absorption in humans” value ([3]; Silvestrini et al.) was “rather low; also recorded: too low”. For the same compound, the blood levels ([3]; following 8 days of treatment at increasing doses from 150 to 900 mg daily, humans) was 8 µg, the “protective effect on lens opacification in vitro (words)” value (isolated bovine lenses) was “protective action in vitro with respect to lens opacification” and the “protective effect on lens opacification in vitro (words)” value (isolated bovine lenses; listed as Bendazac) was “clearcut protective effect on this experimentally induced cataract”. For the same compound, the “anti-denaturant activity on proteins” value (blood proteins) was “very specific anti-denaturant activity on some blood proteins”, the inhibition at 500 µM [4, 8] was 47% and the inhibition at 1000 µM ([4]; drug molar concentration 10^-3) was 60%. The inhibition at 100 µM ([4]; drug molar concentration 10^-4) was 12%.
In the case of O=C(O)COc1nn(Cc2ccccc2)c2ccccc12 [lysine salt of bendazac, Salt of [(1-benzyl-1H-indazol-3-yl)oxy]acetic acid with L. lysine (dihydrate)], the concentration at 2 h ([2]; 2 hours after single oral administration of 500 mg lysine salt (= 303.8 mg bendazac), 6 volunteers, read-out: mean serum concentration) was 30000 ng/mL, the “oral absorption in man” value ([2]; lysine salt vs bendazac alone, (dihydrate)) was “good oral absorption; also recorded: better absorbed in man than bendazac alone” and the “effect on cataract” value (cataract [5]) was “induces a regression of the disease”. The “Overall Judgement: improvement (+), number of patients” value (cataract [6]; [9]) was 18, the “Overall Judgement: no change (0), number of patients” value (cataract [6]; [9]) was 5 and the “Overall Judgement: worsening (-), number of patients” value (cataract [6]; [9]) was 1. For the same compound, the “Refraction: improvement (+), number of patients” value (cataract [6]; [9]) was 10, the “Refraction: no change (0), number of patients” value (cataract [6]; [9]) was 13 and the “Refraction: worsening (-), number of patients” value (cataract [6]; [9]) was 1. The “Slit-lamp and/or Transillum.: improvement (+), number of patients” value (cataract [6]; [9]) was 14, the “Slit-lamp and/or Transillum.: no change (0), number of patients” value (cataract [6]; [9]) was 10 and the “Vision: improvement (+), number of patients” value (cataract [6]; [9]) was 18. The “Vision: no change (0), number of patients” value (cataract [6]; [9]) was 6, the “number of patients with improvement” value (cataract [6]; depending on the evaluation method) was 10-18 patients and the “number of patients with relatively poor results” value (cataract [6]; first experiment, 24 patients) was 5 patients. The “number of patients with worsening effect” value (cataract [6]; first experiment, 24 patients) was 1 patient, the “Overall Judgement” value (cataract [6]; [10]) was “+ and - and 0” and the Refraction (cataract [6]; [10]) was “+ and 0 and -”. The Slit-lamp and/or transillumin. (cataract [6]; [10]) was “+ and 0”, the Vision (cataract [6]; [10]) was “+ and 0” and the “Overall Judgement: worsening (-), number of patients” value (cataract [7]; 16 patients, 4 weeks, double blind) was 2. The “Overall Judgement: improvement (+), number of patients” value (cataract [7]; [11]) was 11, the “Refraction: improvement (+), number of patients” value (cataract [7]; [11]) was 9 and the “Transillumination: no change (0), number of patients” value (cataract [7]; [11]) was 2. The “Vision: improvement (+), number of patients” value (cataract [7]; [11]) was 10, the “Overall Judgement: no change (0), number of patients” value (cataract [7]; [12]) was 3 and the “Slit-lamp: no change (0), number of patients” value (cataract [7]; [12]) was 2. For the same compound, the “Vision: no change (0), number of patients” value (cataract [7]; 16 patients, 4 weeks, double blind, placebo (19) 6) was 6, the “Slit-lamp: worsening (-), number of patients” value (cataract [7]; 16 patients, 4 weeks, double blind, placebo (19) 9) was 1 and the “Refraction: no change (0), number of patients” value (cataract [7]; 16 patients, 4 weeks, double blind, placebo (19) 12) was 7. For the same compound, the “Slit-lamp: improvement (+), number of patients” value (cataract [7]; [13]) was 10, the “Transillumination: improvement (+), number of patients” value (cataract [7]; [13]) was 4 and the “Overall Judgement” value (cataract [7]; [14]) was 0 and + and -. For the same compound, the Refraction (cataract [7]; [14]) was 0 and +, the Slit-lamp (cataract [7]; [14]) was “+ and 0 and -” and the Transillumination (cataract [7]; [14]) was “+ and 0”. The Vision (cataract [7]; [14]) was 0 and + and the “effect on cataract” value (cataract [7]; oral administration, patients, (dihydrate)) was “healing effect on cataract; also recorded: induces a regression of the disease”.

— patent publication US4451477A, “Bendazac treatment of cataract” (Aziende Chimiche Riunite Angelini Francesco A.C.R.A.F. …, priority 1981, dated 1984)
